Test results as given in patent publication US8927717B1, “Thiochromeno[2,3-c]quinolin-12-one derivatives, preparation method and application thereof” (National Defense Medical Center, priority 2014, dated 2015).
Where two headings read alike, the source gives them in different places.

Experiments:
DU-145 cell line = assay: MTT assay for cell cytotoxicity; assay type: cell-based, human; details: DU-145 cells; 72 h; at least three independent experiments; read-out: MTT assay (IC50 ± SD) DU-145
Method: (§1) All of synthesis compounds were evaluated cell cytotoxicity by using MTT colorimetric assay on PC-3 and DU-145 cell lines. DU-145 and PC-3 are human hormone-refractory (androgen-independent) prostatic cancer cell lines from American Type Culture Collection (HTB-81™, ATCC, Rockville, Md.)^125 and Bioresource Collection and Research Center (60122, BCRC, Taiwan)^126, respectively. Two of the “classical” cell lines were cultivated in RPMI-1640 medium supplemented with 5% fetal bovine serum (v/v), 100 U/mL penicillin, and […] streptomycin. Approximately 2×10^3 cells were seeded into each well of a 96-well plate and incubated in 5% CO2 at 37° C. for 24 h. To evaluate the in vitro cytotoxicity, all the synthetic compounds were dissolved in DMSO, prepared immediately before the experiments and diluted into the complete medium before being added to each well of a 96-well plate. Each compound was then added to the culture medium for designated various concentrations (0.15, 0.5, 1.5, 5, 15 μM). After 72 h, an amount of 100 μL of MTT (1 mg/mL) was added to each well, and the samples were incubated at 37° C. for 4 h. After removing the MTT solution, 100 μL of DMSO was added to each well and incubated at 37° C. for another 20 mins. The absorbency at 560 nm was measured by using an ELISA reader.
(§2) Results are expressed as mean values of at least three independent experiments. The IC50 values of testing compounds were described in Table 1.

PC-3 cell line = assay: MTT assay for cell cytotoxicity; assay type: cell-based, human; details: PC-3 cells, 72 h, at least three independent experiments, read-out: MTT assay (IC50 ± SD) PC-3
Method: as §1, §2

TOP I (Topoisomerase I) [1] = target: T1, TOP I (Topoisomerase I) (Homo sapiens, UniProt P11387); assay: TOP I mediated supercoiled DNA relaxation assay; assay type: biochemical; details: primary assay at 25 and/or 50 μM
T1 construct: purchased TopoGEN TG2005H
T1 sequence (P11387 1-765): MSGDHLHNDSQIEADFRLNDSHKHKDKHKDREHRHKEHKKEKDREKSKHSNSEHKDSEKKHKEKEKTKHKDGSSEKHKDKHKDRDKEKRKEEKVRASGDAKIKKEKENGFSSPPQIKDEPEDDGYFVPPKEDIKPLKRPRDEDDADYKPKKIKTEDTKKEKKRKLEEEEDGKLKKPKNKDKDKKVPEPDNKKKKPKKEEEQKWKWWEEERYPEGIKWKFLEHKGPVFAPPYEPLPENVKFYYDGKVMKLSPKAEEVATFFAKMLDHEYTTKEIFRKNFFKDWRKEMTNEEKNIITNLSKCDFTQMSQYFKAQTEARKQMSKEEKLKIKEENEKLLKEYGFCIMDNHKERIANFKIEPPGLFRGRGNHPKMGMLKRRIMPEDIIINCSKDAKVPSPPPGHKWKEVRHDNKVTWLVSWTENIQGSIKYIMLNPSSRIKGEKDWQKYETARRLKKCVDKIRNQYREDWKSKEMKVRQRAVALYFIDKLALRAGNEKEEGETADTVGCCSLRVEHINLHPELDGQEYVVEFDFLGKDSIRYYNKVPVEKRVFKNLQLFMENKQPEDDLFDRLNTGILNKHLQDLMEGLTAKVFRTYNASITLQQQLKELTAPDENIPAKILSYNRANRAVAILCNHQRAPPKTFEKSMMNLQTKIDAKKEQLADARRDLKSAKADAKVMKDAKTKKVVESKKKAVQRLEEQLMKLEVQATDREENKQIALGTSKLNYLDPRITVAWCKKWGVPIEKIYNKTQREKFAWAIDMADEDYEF
Method: According to the cell cytotoxicity, compounds 5, 7, 8, 16, 19, N2, N7, N8, N9, N14-N19, and N25 were also selected for primary TOP I and II activities assays at 25 and/or 50 μM (FIG. 2-4).

[2] = target: T2, TOP II (Topoisomerase II) (Homo sapiens, UniProt P11388); assay: TOP II-catalyzed relaxation of plasmid DNA assay; assay type: biochemical
T2 construct: purchased TopoGEN TG-2000H-1
T2 sequence (P11388 whole entry): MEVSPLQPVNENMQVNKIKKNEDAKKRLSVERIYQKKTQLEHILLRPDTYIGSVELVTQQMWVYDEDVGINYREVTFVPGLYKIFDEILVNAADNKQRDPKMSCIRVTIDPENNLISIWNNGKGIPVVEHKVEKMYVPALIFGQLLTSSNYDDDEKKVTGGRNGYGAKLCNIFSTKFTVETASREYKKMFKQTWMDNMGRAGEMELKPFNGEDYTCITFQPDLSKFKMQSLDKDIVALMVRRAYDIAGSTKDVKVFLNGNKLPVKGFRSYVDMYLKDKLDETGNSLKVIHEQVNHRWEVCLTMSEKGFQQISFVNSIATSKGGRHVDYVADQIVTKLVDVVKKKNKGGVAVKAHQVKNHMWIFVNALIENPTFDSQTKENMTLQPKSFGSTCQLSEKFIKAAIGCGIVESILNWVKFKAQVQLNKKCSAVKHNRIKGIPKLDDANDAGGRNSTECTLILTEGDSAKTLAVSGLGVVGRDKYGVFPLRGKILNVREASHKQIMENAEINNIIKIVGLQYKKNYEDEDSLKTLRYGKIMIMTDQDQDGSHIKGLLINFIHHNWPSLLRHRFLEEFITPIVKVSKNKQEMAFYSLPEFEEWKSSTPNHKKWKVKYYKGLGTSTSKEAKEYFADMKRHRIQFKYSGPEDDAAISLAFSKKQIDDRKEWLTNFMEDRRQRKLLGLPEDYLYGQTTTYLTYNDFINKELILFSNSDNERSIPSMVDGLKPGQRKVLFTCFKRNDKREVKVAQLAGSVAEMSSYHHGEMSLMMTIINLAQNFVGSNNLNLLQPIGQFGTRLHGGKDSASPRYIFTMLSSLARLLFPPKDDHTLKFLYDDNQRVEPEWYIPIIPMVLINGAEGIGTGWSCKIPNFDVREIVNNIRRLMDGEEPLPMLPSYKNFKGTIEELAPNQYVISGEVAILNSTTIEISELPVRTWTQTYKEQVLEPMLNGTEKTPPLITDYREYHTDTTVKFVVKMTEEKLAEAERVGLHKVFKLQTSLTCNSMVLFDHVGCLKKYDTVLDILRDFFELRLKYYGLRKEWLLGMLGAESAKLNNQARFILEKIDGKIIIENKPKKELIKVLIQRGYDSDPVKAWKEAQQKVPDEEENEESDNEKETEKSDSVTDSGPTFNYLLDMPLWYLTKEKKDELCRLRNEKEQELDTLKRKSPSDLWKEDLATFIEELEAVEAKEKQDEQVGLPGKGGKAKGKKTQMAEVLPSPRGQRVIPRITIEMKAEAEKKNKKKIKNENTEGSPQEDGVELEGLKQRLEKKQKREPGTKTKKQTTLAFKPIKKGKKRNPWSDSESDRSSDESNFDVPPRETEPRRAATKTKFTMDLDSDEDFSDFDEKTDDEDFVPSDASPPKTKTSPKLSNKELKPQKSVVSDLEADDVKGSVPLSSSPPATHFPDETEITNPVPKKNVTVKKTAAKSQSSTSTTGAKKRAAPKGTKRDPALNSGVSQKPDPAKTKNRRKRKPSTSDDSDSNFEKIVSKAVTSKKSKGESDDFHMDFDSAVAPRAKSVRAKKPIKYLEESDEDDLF
Method: We also performed TOP II-catalyzed relaxation of plasmid DNA assays (FIG. 5-7) to evaluate if compounds could inhibit TOP II. […] The IC50 value of compounds 7, N7, N8, N14, N15, N18, and N19 were about 10, 10, 1, 10, 5, 1, and 1 μM, respectively (detect by TopoGEN TG2005H, TG-2000H-1).

TOP I (Topoisomerase I) [3] = target: T1, TOP I (Topoisomerase I); assay: TOP I mediated supercoiled DNA relaxation assay; assay type: biochemical; details: five different concentrations; TopoGEN TG2005H, TG-2000H-1

Compound | IC50 (DU-145 cell line) [µM] | IC50 (PC-3 cell line) [µM] | other results
O=c1c2cc(Cl)ccc2sc2c(NCCCO)nc3ccccc3c12 [Compound N10, 10-Chloro-6-(3-propanolamino)-12H-thiochromeno[2,3-c]quinolin-12-one] | 5.94 ± 2.03 | 6.31 ± 4.11 | 
O=c1c2cc(Cl)ccc2sc2c(NCCCCCO)nc3ccccc3c12 [Compound N11, 10-Chloro-6-(5-pentanolamino)-12H-thiochromeno[2,3-c]quinolin-12-one] | 4.95 ± 0.58 | 8.38 ± 3.39 | 
CCN(CC)CCCNc1nc2ccccc2c2c(=O)c3cc(Cl)ccc3sc12 [Compound N18, 10-Chloro-6-((3-(diethylamino)propyl)amino)-12H-thiochromeno[2,3-c]quinolin-12-one] |  |  | melting point: 142 to 143 °C; inhibitory effect in TOP I activity assay compared with CPT (TOP I (Topoisomerase I) [1]): more potent inhibitory effects than CPT; IC50 ([2]; five different concentrations, TopoGEN TG2005H, TG-2000H-1, read-out: IC50 value, TOP II mediated supercoiled DNA relaxation): ~1 µM; inhibitory effect in TOP II relaxation assay compared with VP-16 ([2]; primary assay at 25 and/or 50 μM): more potent inhibitory effects than the positive agent VP-16; IC50 (TOP I (Topoisomerase I) [3]): ~25 µM
Nc1ccc(CCNc2nc3ccccc3c3c(=O)c4cc(Cl)ccc4sc23)cc1 [Compound N32, 6-((4-Aminophenethyl)amino)-10-chloro-12H-thiochromeno[2,3c]quinolin-12-one] | 13.6 ± 1.39 | 10.1 ± 0.94 | 
COc1cc([C@@H]2c3cc4c(cc3[C@@H](O[C@@H]3O[C@@H]5CO[C@@H](C)O[C@H]5[C@H](O)[C@H]3O)[C@H]3COC(=O)[C@H]23)OCO4)cc(OC)c1O [Etoposide (VP-16), Etoposide, reference compound] |  |  | IC50 (PC-3 cell line; Homo sapiens): 4.33 ± 0.86 µM
